Results: article PMC8292763, “Mechanism of BIP-4 mediated inhibition of InsP3Kinase-A” (Bioscience Reports, 2021)

What was measured:
[1] = target: T1, InsP3Kinase-A (Homo sapiens, UniProt P23677); test: biochemical; design: gene ITPKA; full-length GST-InsP3Kinase-A; conditions: ADP-Glo, 5 uM compound, normalized to positive control
Experimental: For the inhibitor screening, the compounds were diluted in dimethylsulfoxide (DMSO, Sigma), and a final compound concentration of 5 µM was applied to each well. Each measurement was performed in triplicates. As controls, a positive control (enzyme solution with InsP3Kinase and without compounds, but with DMSO), a negative control (enzyme buffer without InsP3Kinase), and an inhibitor control (quercetin and BIP-4) were applied. In each well, there was a final buffer concentration of 20 mM HEPES pH 7.5, 5 mM MgCl2, 30 mM KCl, 1 mM DTT, 0.5 mM ATP, and an enzyme concentration between 20 nM and 55 nM was applied. […] Then, 10 µl of ADP-Glo reagent was added (depleting remaining ATP and stopping InsP3Kinase enzymatic reaction) and incubated for 20 min at room temperature (RT). […] For luminescent measurement, a TECAN infinite 200 plate reader was used with an integration time of 1000 ms at a temperature of 30°C. For this screen, all measurements were performed in triplicates, three-times using the ADP Glo assay.

[2] = target: T2, InsP3Kinase-A (Homo sapiens, UniProt P23677, K264Q); test: activity of purified mutant with and without BIP-[…] to […]); type: biochemical
T2 construct: gene ITPKA; full-length
T2 sequence (P23677 whole entry K264Q): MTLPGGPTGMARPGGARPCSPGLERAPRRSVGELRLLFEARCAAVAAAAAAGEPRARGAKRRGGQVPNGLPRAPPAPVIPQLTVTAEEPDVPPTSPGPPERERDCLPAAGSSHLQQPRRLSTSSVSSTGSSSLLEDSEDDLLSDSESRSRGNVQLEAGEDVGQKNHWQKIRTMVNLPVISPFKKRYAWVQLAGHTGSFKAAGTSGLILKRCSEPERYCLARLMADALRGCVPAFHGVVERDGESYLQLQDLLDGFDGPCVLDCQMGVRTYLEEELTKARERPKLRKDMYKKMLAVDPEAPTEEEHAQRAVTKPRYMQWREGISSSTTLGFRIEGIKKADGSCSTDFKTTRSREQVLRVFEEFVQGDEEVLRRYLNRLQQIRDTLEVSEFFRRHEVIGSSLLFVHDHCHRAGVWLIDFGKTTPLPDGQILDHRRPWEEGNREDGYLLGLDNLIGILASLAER

[3] = target: T1, InsP3Kinase-A; test: coupled PK/LDH assay with Lineweaver-Burk; thermal shift +[…] °C on wt; type: biochemical; design: gene ITPKA; full-length, tag-less
[4] = target: T1, InsP3Kinase-A; test: biochemical; design: gene ITPKA; full-length GST-InsP3Kinase-A; conditions: ADP-Glo, 5 uM compound, normalized to positive control; remark: listed apart in the source
Experimental: For the inhibitor screening, the compounds were diluted in dimethylsulfoxide (DMSO, Sigma), and a final compound concentration of 5 µM was applied to each well. Each measurement was performed in triplicates. […] In each well, there was a final buffer concentration of 20 mM HEPES pH 7.5, 5 mM MgCl2, 30 mM KCl, 1 mM DTT, 0.5 mM ATP, and an enzyme concentration between 20 nM and 55 nM was applied. […] Then, 10 µl of ADP-Glo reagent was added (depleting remaining ATP and stopping InsP3Kinase enzymatic reaction) and incubated for 20 min at room temperature (RT). Next, 10 µl kinase detection reagent (converting remaining ADP to ATP and containing luciferase, which uses ATP as substrate) was added, and incubation was continued for 15 min at RT. For luminescent measurement, a TECAN infinite 200 plate reader was used with an integration time of 1000 ms at a temperature of 30°C. For this screen, all measurements were performed in triplicates, three-times using the ADP Glo assay.

T1 sequence (P23677 whole entry): as the sequence (P23677 whole entry K264Q) above, with Q264K counted along it

| SMILES | inhibition at 5 µM [1] [%] | other results |
| --- | --- | --- |
| CCN(CC)S(=O)(=O)c1ccc(N2C(=O)c3cc([N+](=O)[O-])cc4cc([N+](=O)[O-])cc(c34)C2=O)cc1 [compound 33, 33] | 41.6 | – |
| CNS(=O)(=O)c1ccc(N2C(=O)c3cc([N+](=O)[O-])cc4cc([N+](=O)[O-])cc(c34)C2=O)cc1 [compound 31, 31] | 33.4 | – |
| O=C1c2cc([N+](=O)[O-])cc3cc([N+](=O)[O-])cc(c23)C(=O)N1c1ccccc1Cl [compound 28, 28] | 19.7 | – |
| Cc1nn(-c2ccc([N+](=O)[O-])cc2)c(C)c1N1C(=O)c2cc([N+](=O)[O-])cc3cc([N+](=O)[O-])cc(c23)C1=O [BIP-4, 2-[3,5-dimethyl-1-(4-nitrophenyl)-1H-pyrazol-4-yl]-5,8-dinitro-1H-benzo[de]isoquinoline-1,3(2H)-dione] | – | Enzyme activity + BIP4 in % [2]: 18.797 % enzyme activity with BIP-4; Ki [3]: 437 nM |
| Cc1ccc(N2C(=O)c3cc([N+](=O)[O-])cc4cc([N+](=O)[O-])cc(c34)C2=O)c(C)c1 [compound 19, 19] | 36.2 | – |
| O=C1c2cc([N+](=O)[O-])cc3cc([N+](=O)[O-])cc(c23)C(=O)N1c1ccc(Br)cn1 [compound 78, 78] | – | inhibition at 5 µM [4]: 1.6% |
| CCOc1ccc(N2C(=O)c3cc([N+](=O)[O-])cc4cc([N+](=O)[O-])cc(c34)C2=O)cc1 [compound 27, 27] | 31.4 | – |
